Assays:
plasma cholesterol = assay: Hypocholesterolemic activity in rats on hypercholesterolemic diet; assay type: in vivo; details: Rattus norvegicus; male rats, oral, 4 days, Altromin C 1061 hypercholesterolemic diet; plasma cholesterol on day 5 after 16 h fast; read-out: ED50 (dose which reduces the plasma cholesterol concentration by half relative to control animals)
Procedure: 2) Hypocholesterolemic Activity
Male rats (160-180 g) are subjected for 4 days to an Altromin C 1061 hypercholesterolemic diet, and concomitantly treated orally with the compounds suspended in carboxymethylcellulose at a concentration of 1%.
On day 5, the animals, fasted for 16 hours, are anesthetized with ethyl ether and exsanguinated by drawing blood at the abdominal aorta onto EDTA.
The blood is immediately centrifuged and the plasma stored at 4° C.
Plasma cholesterol is then assayed by the CHOP-PAP method (Boehringer-Mannheim Ref. 237574).
The median effective dose (ED50) corresponds to the dose which reduces the plasma cholesterol concentration by half relative to control animals.

[1] = test system: hepatic microsomal lipids (rat liver microsomes); assay: Antioxidant activity: chemical peroxidation of rat liver microsomes (T.BARS); assay type: biochemical; details: Fe3+/ADP/dihydroxyfumaric acid
Source text: In the presence of Fe^3+ and ADP, dihydroxyfumaric acid undergoes an autoxidation which generates oxygen free radicals. The latter bring about the peroxidation of hepatic microsomal lipids.

Human LDL = assay: Antioxidant activity: oxidation of LDL by CuSO4 (T.BARS); assay type: biochemical; details: 4.5 μM CuSO4, 6 hours incubation, T.BARS at 532 nm
[2] = target: ACAT (acyl-CoA:cholesterol O-acyltransferase enzyme); assay: Inhibition of ACAT in vitro (technique of H. Chautan et al.); assay type: biochemical; details: read-out: IC50 (50% inhibitory concentration), ACAT inhibition
Source text: The compounds were studied for their inhibitory effect on ACAT and hypocholesterolemic effect in rats on the one hand and for their antioxidant effect on the other hand.

SMILES	IC50 [1] [µM]	IC50 (Human LDL) [µM]	IC50 [2] [µM]	ED50 (plasma cholesterol) [mg/kg]
CCCCCCCCCCC(C)(C)C(=O)Nc1c(OC)cc(OC)cc1OC [CI 976, reference compound]	> 10	100		7.2
CCCCCCCCCCCCC(C)(C)C(=O)NCC(=O)Nc1cc(C)c(O)c(C)c1C [Compound 2, N-(α,α,-dimethyl)tetradecanamido-2',3',5'-trimethyl-4'-hydroxyglycylanilide]	0.5	1	0.74	3
CCCCCCCN(CCCCCSc1nc(-c2ccccc2)c(-c2ccccc2)[nH]1)C(=O)Nc1ccc(F)cc1F [DUP 128, reference compound]	> 10	30		1.4

Continued, in another order:

IC50 [1] [µM]	IC50 (Human LDL) [µM]	IC50 [2] [µM]	SMILES	ED50 (plasma cholesterol) [mg/kg]
3	5	1.2	CCCCCCCCCCCCSC(C)C(=O)NCC(=O)Nc1cc(C)c(O)c(C)c1C (centres unmarked) [Compound 1, N-(2-n-dodecylthio)propionamido-2',3',5'-trimethyl-4'-hydroxyglycylanilide]	1
0.5	5	0.16	CCCCCCCCCCCCSC(C)(C)C(=O)N(C)CC(=O)Nc1cc(C)c(O)c(C)c1C [Compound 3, N-methyl-N-(α-n-dodecylthio)isobutyramido-2',3',5'-trimethyl-4'-hydroxyglycylanilide]	< 2.5
0.3	3	0.62	CCCCCCCCCCCCSC(C)(C)C(=O)NCC(=O)Nc1cc(C)c(O)c(C)c1C [Compound 5, N-(α-n-dodecylthio)isobutyramido-2',3',5'-trimethyl-4'-hydroxyglycylanilide]	2.5
0.5	3	0.28	CCCCCCCCCCCCSC(C)C(=O)N(C)CC(=O)Nc1cc(C)c(O)c(C)c1C (stereo not drawn) [Compound 8, N-methyl-N-(α-n-dodecylthio)propionamido-2',3',5'-trimethyl-4'-hydroxyglycylanilide]	4

Reference: patent US5760087A, “Glycylanilide derivatives, their preparation and their application in therapy” (Pierre Fabre Medicament, priority 1995, dated 1998)
